Legend:
Type in all cases: in vivo
[1] = test system: apnea and hypopnea events; experiment: Chronic intermittent hypoxia (CIH) model, diaphragm EMG recording of apneic and hypoapneic events; settings: rats; intraperitoneal 500 mcg/kg daily during 7 day CIH plus day 8 dose; FIG. 5
Description: Briefly, the experimental and control animals were placed in adjoining, identical chambers that were maintained at room temperature and were large enough to allow unimpeded movement. The fraction of inspired oxygen in each chamber was regulated by microprocessor-controlled miniature solenoids attached to each chamber by high-pressure tubing. For the CIH protocol, the chamber was flushed with 100% nitrogen for 30 sec followed by 30 sec of 100% O2 at a low flow rate. The time course of change in the fraction of inspired oxygen for the experimental chamber was determined using an oxygen analyzer (Sensormedics, Milan, Italy): a decline to a nadir of 6.5 to 7% oxygen, remaining at that level for 5 to 7 sec, and then gradually increasing to 21% over the next 30 sec during which oxygen flowed into the chamber. This cycle was repeated each minute over 8 daytime hours (8 to 9 am to 4 to 5 pm) for 7 days. Control rats were exposed to the same sequence of events as experimental rats, with the exception that room air was used instead of nitrogen and oxygen. […] The experimental animals were administered intra peritoneal trans-retinoic acid (500 mcg/kg) daily throughout the 7 day CIH exposure with an additional dose given the morning of diaphragm electromyography (EMG) recordings (day 8; total of 8 injections) […] and hypoapneic events were recorded via conventional diaphragm EMG measurements.

[2] = test system: phrenic and hypoglossal nerve activity; experiment: Protocol 2: central neural apnea model with concurrent hypoxia, rats pretreated with retinoic acid
Description: Respiratory-related activity was recorded from the left phrenic and hypoglossal nerves in urethane-anesthetized (1.7 g/kg), vagotomized, paralyzed and mechanically ventilated rats (see Strey et al., 2012 for details). Rats are slightly hyperventilated, so a small amount of inspired CO2 was delivered to achieve target, normal PCO2. A pre-study apneic threshold test was performed. The apneic threshold was determined by lowering arterial PCO2 until phrenic respiratory activity ceased. […] Following 15 min of stable phrenic and hypoglossal burst discharge, baseline phrenic and hypoglossal burst amplitudes and blood gases were measured. Rats were then subjected to one of the following protocols:
Protocol 2) Five (5) brief central neural apneas followed by a 25 sec ventilator apnea (nadir O2 saturation ˜70%) in rats pretreated with vehicle (“control”) or retinoic acid (see below for details). The results are depicted in FIGS. 2A, 2B, and 3.
Protocol 1 tests the hypothesis that retinoic acid is sufficient to elicit inactivity-induced respiratory motor facilitation. Protocol 2 tests the hypothesis that retinoic acid administration can circumvent hypoxia-induced constraints on inactivity-induced respiratory motor facilitation. Phrenic burst amplitude was recorded for up to 60 min following treatment, and an apneic threshold test was performed at the end of the protocol.
To model a central neural apnea in anesthetized rats, inflow of CO2 was ceased by stopcock valve to reduce arterial PCO2 below the apneic threshold. Following a 10 second period of no phrenic firing activity (signaling absent breaths) the ventilator was turned off for 25 seconds to model the hypoxia that would normally be experienced in a human. At the end of 25 seconds, the ventilator was turned back on and PaCO2 was restored. This experience was repeated five times, with five minutes separating each episode.

phrenic nerve activity = experiment: Protocol 1: intrathecal retinoic acid injections, phrenic nerve recording in anesthetized rats; settings: three 10 μL intrathecal injections, 50 μM each, 60 min after final injection, vs vehicle control, FIGS. 1A, 1B
Description: Respiratory-related activity was recorded from the left phrenic and hypoglossal nerves in urethane-anesthetized (1.7 g/kg), vagotomized, paralyzed and mechanically ventilated rats (see Strey et al., 2012 for details). Rats are slightly hyperventilated, so a small amount of inspired CO2 was delivered to achieve target, normal PCO2. A pre-study apneic threshold test was performed. The apneic threshold was determined by lowering arterial PCO2 until phrenic respiratory activity ceased. […] Following 15 min of stable phrenic and hypoglossal burst discharge, baseline phrenic and hypoglossal burst amplitudes and blood gases were measured. Rats were then subjected to one of the following protocols: Protocol 1) Three (3) 10 μL intrathecal injections (50 μM each) of retinoic acid or three (3) 10 μL of vehicle (aCSF in 10% DMSO). […] Protocol 1 tests the hypothesis that retinoic acid is sufficient to elicit inactivity-induced respiratory motor facilitation. […] Phrenic burst amplitude was recorded for up to 60 min following treatment, and an apneic threshold test was performed at the end of the protocol.

**Q.** With `CC1=C(/C=C/C(C)=C/C=C/C(C)=C/C(=O)O)C(C)(C)CCC1` [retinoic acid, all-trans retinoic acid] as the compound, how does the “number of apnea and hypopnea events (diaphragm EMG)” value [1] read?
**A.** Its value is “reduces the number of apnea and hypopnea events”.

**Q.** And the CO2 apneic threshold ([2]; anesthetized rats, given before central neural apnea, 60 min post injection, vs control, FIG. 3)?
**A.** The CO2 apneic threshold was “reduced the CO2 apneic threshold relative to a control groups”.

**Q.** And the phrenic burst amplitude ([2]; anesthetized rats, intrathecal 10 μL, 50 μM before central neural apneas with hypoxia, 60 min after, FIG. 2A)?
**A.** The phrenic burst amplitude was “significantly higher than pre-stimulation levels”.

**Q.** What about the hypoglossal burst amplitude ([2]; anesthetized rats, intrathecal 10 μL, 50 μM before central neural apneas with hypoxia, 60 min after, FIG. 2B) of the same compound?
**A.** Its hypoglossal burst amplitude is “significantly higher than pre-stimulation levels”.

**Q.** And the “enhanced phrenic motor output following inactivity with concurrent hypoxia” value ([2]; pretreatment, intermittent inactivity with concurrent hypoxia, FIG. 4C)?
**A.** The value was “rescues then enhanced phrenic motor output”.

**Q.** And the “phrenic nerve activity (phrenic motor output) as a percentage of baseline activity” value (phrenic nerve activity)?
**A.** The value was “persistently increases phrenic motor output”.

**Q.** And the “phrenic nerve activity (phrenic motor output) as a percentage of baseline activity” value (phrenic nerve activity; listed as trans-retinoic acid)?
**A.** The value was “significantly higher than control group”.

Source: patent US11045441B2, “Use of retinoic acid and analogs thereof to treat central neural apneas” (Wisconsin Alumni Research Foundation, priority 2015, dated 2021)
